From ChEMBL document CHEMBL4257443, “The discovery of a potent Nav1.3 inhibitor with good oral pharmacokinetics” (Medchemcomm, 2017)

Tests used:
[1] = biological target: Sodium channel protein type 3 subunit alpha (Homo sapiens, UniProt Q9NY46); test: Inhibition of human NaV1.3 expressed in HEK cells by electrophysiological method; assay type: cell-based
[2] = Lipophilicity, log D of the compound; assay type: physicochemical; settings: octanol/water
[3] = Dissociation constant, pKa of compound; assay type: physicochemical

Sequence of Sodium channel protein type 3 subunit alpha (Q9NY46 whole entry): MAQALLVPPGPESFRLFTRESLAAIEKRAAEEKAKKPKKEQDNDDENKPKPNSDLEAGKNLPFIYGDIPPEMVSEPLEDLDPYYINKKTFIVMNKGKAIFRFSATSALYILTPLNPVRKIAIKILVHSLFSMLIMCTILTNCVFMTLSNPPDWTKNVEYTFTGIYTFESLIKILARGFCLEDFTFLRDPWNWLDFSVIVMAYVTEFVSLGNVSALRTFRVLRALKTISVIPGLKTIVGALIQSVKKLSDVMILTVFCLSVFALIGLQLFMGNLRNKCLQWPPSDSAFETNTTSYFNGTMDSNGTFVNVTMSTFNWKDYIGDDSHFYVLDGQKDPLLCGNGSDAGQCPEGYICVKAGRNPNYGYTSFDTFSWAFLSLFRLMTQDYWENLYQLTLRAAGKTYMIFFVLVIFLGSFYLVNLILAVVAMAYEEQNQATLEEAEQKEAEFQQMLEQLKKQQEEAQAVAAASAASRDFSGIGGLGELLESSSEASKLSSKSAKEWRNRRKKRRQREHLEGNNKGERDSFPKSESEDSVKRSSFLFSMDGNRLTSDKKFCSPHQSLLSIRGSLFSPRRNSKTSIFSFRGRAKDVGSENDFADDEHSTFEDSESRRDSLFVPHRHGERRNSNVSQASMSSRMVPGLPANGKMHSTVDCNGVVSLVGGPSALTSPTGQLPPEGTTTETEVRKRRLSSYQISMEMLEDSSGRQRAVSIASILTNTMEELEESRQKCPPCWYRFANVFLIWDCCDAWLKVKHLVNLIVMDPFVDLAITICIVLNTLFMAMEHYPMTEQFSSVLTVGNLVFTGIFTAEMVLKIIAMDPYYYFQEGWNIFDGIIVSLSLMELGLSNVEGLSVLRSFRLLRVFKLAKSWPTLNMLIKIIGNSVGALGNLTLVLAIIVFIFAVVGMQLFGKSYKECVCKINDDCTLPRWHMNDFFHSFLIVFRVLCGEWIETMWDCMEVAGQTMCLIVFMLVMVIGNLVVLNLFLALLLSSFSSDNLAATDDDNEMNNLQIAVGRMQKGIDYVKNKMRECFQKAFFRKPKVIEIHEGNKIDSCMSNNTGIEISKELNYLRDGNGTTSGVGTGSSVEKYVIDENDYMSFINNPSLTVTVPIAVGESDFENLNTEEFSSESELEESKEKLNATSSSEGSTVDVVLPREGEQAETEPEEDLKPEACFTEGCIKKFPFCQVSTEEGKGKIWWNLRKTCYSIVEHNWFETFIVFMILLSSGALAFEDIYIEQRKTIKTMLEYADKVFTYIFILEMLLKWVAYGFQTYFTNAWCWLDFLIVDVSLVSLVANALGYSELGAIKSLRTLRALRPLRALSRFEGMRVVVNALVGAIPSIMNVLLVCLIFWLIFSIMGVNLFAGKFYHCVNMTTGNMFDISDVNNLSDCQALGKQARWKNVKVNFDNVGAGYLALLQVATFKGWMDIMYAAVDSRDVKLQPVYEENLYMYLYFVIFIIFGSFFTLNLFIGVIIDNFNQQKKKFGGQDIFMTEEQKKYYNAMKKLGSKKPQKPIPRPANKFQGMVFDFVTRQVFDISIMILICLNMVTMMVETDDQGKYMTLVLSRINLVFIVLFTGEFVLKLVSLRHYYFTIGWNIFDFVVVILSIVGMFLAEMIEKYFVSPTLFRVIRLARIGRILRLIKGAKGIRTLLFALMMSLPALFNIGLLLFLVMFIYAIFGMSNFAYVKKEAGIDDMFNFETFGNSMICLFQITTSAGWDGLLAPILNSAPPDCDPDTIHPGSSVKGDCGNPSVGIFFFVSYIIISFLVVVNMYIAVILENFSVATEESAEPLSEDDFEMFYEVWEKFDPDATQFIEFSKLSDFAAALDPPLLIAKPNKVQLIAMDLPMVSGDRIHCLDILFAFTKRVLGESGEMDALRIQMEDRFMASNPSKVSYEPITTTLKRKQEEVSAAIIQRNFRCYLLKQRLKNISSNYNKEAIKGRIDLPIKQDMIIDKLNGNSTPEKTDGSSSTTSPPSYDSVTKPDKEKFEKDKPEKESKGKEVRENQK

Row | Structure (SMILES) | IC50 [1] [µM] | logD [2] | pKa [3]
1 | O=S(=O)(NCc1ccc(C(F)(F)F)cc1)c1ccc(S(=O)(=O)Nc2nccs2)cc1 | 0.16 |  | 
2 | O=S(=O)(CCc1ccc(C(F)(F)F)cc1)c1ccc(S(=O)(=O)Nc2nccs2)cc1 | 0.155 |  | 
3 | O=S(=O)(Nc1nccs1)c1ccc(S(=O)(=O)N2CC[C@H](Oc3c(Cl)cccc3Cl)C2)cc1F | 0.945 | 2.6 | 
4 | CN(Cc1ccc(OC(F)(F)F)c(Cl)c1)C(=O)c1ccc(S(=O)(=O)Nc2ncns2)c(F)c1 | 0.522 | 1.3 | 
5 | O=C(COc1ccc(F)cc1)N1CCc2cc(S(=O)(=O)Nc3ncns3)ccc21 | 1.27 | 0.4 | 
6 | O=C(c1ccc(S(=O)(=O)Nc2ncns2)c(F)c1)N1CCC(c2ccnc(C(F)(F)F)n2)CC1 | 6.68 |  | 
7 | O=C(NCc1ccc(OC(F)(F)F)cc1)c1ccc(S(=O)(=O)Nc2nccs2)cc1 | 0.197 | 2.6 | 
8 | O=S(=O)(Nc1nccs1)c1ccc(-c2nnc(Cc3ccc(C(F)(F)F)cc3)[nH]2)cc1 | 0.124 |  | 
9 | O=C(NCc1ccccc1)c1ccc(S(=O)(=O)Nc2nccs2)cc1 | 4.45 |  | 
10 | O=S(=O)(Nc1nccs1)c1ccc(S(=O)(=O)N2CC[C@H](Oc3ccc(C(F)(F)F)cn3)C2)cc1F | 0.851 |  | 
11 | O=C(NCc1ccc(OC(F)(F)F)c(Cl)c1)c1ccc(S(=O)(=O)Nc2cncnc2)c(F)c1 | > 3 | 2 | 4.6
12 | O=C(NCc1ccc(OC(F)(F)F)c(Cl)c1)c1ccc(S(=O)(=O)Nc2nccs2)cc1 | 0.02 | 3.1 | 
13 | O=S(=O)(Nc1nccs1)c1ccc(-c2nnc(Cc3ccc(Cl)c(Cl)c3)[nH]2)cc1 | 0.045 |  | 
14 | O=C(NCc1ccc(OC(F)(F)F)c(Cl)c1)c1ccc(S(=O)(=O)Nc2cccnn2)c(F)c1 | 1.79 | 2.4 | 
15 | O=C(c1ccc(OC(F)(F)F)c(Cl)c1)N1CC(OCc2ccc(S(=O)(=O)Nc3ncns3)cc2)C1 | 0.237 | 1.3 | 
16 | O=S(=O)(Nc1nccs1)c1ccc(S(=O)(=O)N2CCCCC2c2cc(-c3ccccc3)[nH]n2)cc1F (stereo unspecified) | 1.83 |  | 
17 | O=C(NCc1ccc(OC(F)(F)F)c(Cl)c1)c1ccc(S(=O)(=O)Nc2ncccn2)c(F)c1 | 0.374 | 1.8 | 
18 | O=C(Cc1ccccc1)Nc1ccc(S(=O)(=O)Nc2nccs2)cc1 | 3.79 |  | 
19 | O=C(NCc1ccc(C(F)(F)F)cc1)c1ccc(S(=O)(=O)Nc2nccs2)cc1 | 0.147 | 2.5 | 
20 | O=C(NCc1ccc(OC(F)(F)F)c(Cl)c1)c1ccc(S(=O)(=O)Nc2ncc(F)cn2)c(F)c1 | 0.993 | 2.1 | 
21 | O=S(=O)(Nc1nccs1)c1ccc(S(=O)(=O)N2CC(Oc3ccccc3)C2)cc1F | 0.959 | 1.4 | 
22 | O=S(=O)(Nc1nccs1)c1ccc(S(=O)(=O)N2CCC[C@@H]2CNc2ncnc3[nH]ccc23)cc1F | > 3 |  | 
23 | O=S(=O)(Nc1nccs1)c1ccc(S(=O)(=O)N2CCC(c3cccc(C(F)(F)F)n3)CC2)cc1F | 1.64 |  | 
24 | O=S(=O)(Nc1ncns1)c1ccc(Oc2ccc(OC(F)(F)F)c(Cl)c2)cc1 | 0.296 | 2.5 | 
25 | O=C(c1ccc(S(=O)(=O)Nc2ncns2)c(F)c1)N1CCC(c2noc(-c3ccccc3C(F)(F)F)n2)CC1 | 1.95 |  | 
26 | O=C(COc1ccc(F)cc1)N1CCc2cc(S(=O)(=O)Nc3nccs3)ccc21 | 2.51 | 1.8 | 
